Here are results for 3 molecules from patent US8722689B2, “Synergistic combination of flumetsulam or diclosulam with diiodomethyl-P-tolylsulfone” (Dow Global Technologies LLC, priority 2010, dated 2014).

Common to all, as to type: cell-based
For test [1], the system named is Gloeocapsa sp. and Oscillatoria sp. (Gs + Os). As to the kind of experiment: Algal efficacy testing, modified ASTM 5589, paint film (both studies). Particulars: four weeks; for % inhibition: at the total conc given; for Total conc, ppm: concentration in paint chosen as minimum inhibitory concentration for SI. The protocol: (§1) Sample preparation: A single or blend of biocides was post added into white acrylic latex paint free of biocides to give a maximum total active ingredient/s concentration tested. This paint was then diluted with a biocide free acrylic latex paint to give targeted concentrations for the testing. Depending on the type of biocide blends tested, the total biocides concentrations varies from 200 to 5000 ppm. After biocides addition or dilution, each sample was hand mixed for at least a minute until uniformity is achieved. Each of the paint samples as well as a control sample (containing no biocide) were used to prepare films on black plastic-vinyl chloride/acetate copolymer panels (LENETA, Mahwah, N.J.) using a 3 mil (0.0762 mm) bird bar applicator. The panels were thoroughly dried for at least 2 days avoiding direct exposure to sunlight. Square discs (0.5 inch; 1.27 cm^2) were cut out from each panel and were used as the substrate for fungal and algal efficacy tests. This sample size allowed for an agar border when the sample disc was placed into the well of the test plate. Each sample was tested in duplicate
(§2) Test conditions: The appropriate media (BOLD'S 3N for Chlorophytes, BG-11 for Cyanobacteria, and PDA for fungi) were used to support microbial growth. The test plates were maintained at room temp (25° C.-26° C.), in a cycled light-dark environment, for four weeks for algae. Plates for fungal challenge tests were maintained at 30 C for four weeks. At the end of the incubation period the samples were scored for percent area covered by visible microbial growth.
(§3) ASTM 5589 is a standard accelerated test method for determining resistance of various coatings (including paints) to algal defacement. To accommodate for high-throughput screening, this method was scaled down from petri plates to 6-well plates. A single coupon was placed with a pair of sterile forceps at the center of the agar plug (on top) with the painted surface facing upwards. Algal inoculums were prepared by mixing equal concentrations (1×10^6 cfu/ml) and equal volumes (depending on number of samples to be inoculated) of like growing organisms.
(§4) In Flumetsulam+various IT synergy study, three pool of mixed algae were prepared as the test inoculum, Gloeocapsa sp. and Oscillatoria sp. a mix of cyanobacteria grown on BG-11 media; Chlorella sp., Chlorella kessleri, and Nostoc commune are unicellular chlorphytes that were mixed and grown on Bold media; Trentepohlia aurea, Tretepohlia odorata, and Calotrix parientina are filamentous algae that were mixed and grown on Bold media.
(§5) In Diclosulam+various IT synergy study, only two pools of mixed algae were prepared; Gloeocapsa sp. and Oscillatoria sp. grown on BG-11 media and Chlorella sp., Chlorella kessleri, Nostoc commune, Trentepohlia aurea, Tretepohlia odorata, and Calotrix parientina grown on Bold media
(§6) Each well that contains a tested coupon was inoculated with 400 μl of organism mixture (1×10^6 cfu/ml) making sure that the whole surface (paint film as well as the agar surrounding it) was evenly covered. The plates were incubated at room temp (25° C.-26° C.) with cyclic exposure to light (OTT-Lite model # OTL4012P, 40 Watt, 26KLumen) and dark phases, for a period of four weeks. The total area covered was evaluated at the end of each week according to percent area covered in 5% increments.
(§7) The SI is calculated based on […].

The test system of test [2] is Trentepohlia aurea, Tretepohlia odorata, and Calotrix parientina (Cp + To + Ta). In words: Algal efficacy testing, modified ASTM 5589, paint film (Flumetsulam study). Particulars: four weeks; for % inhibition: at the total conc given; for Total conc, ppm: concentration in paint chosen as minimum inhibitory concentration for SI, 25-26 C. As for the experimental part: as §1, §2, §3, §4, §6, §7

Test [3] concerns Chlorella sp., Chlorella kessleri, and Nostoc commune (Cs + Ck + Nc). Described as above. Particulars: four weeks; for % inhibition: at the total conc given; for Total conc, ppm: concentration in paint chosen as minimum inhibitory concentration for SI, 25-26 C. The protocol: as §1, §2, §3, §4, §6, §7
Test [4] concerns Aspergillus niger mixed with Penicillium funiculosum (AnPf). In words: Fungal efficacy testing, modified ASTM 5590, paint film (Flumetsulam study). Particulars: four weeks; for % inhibition: at the total conc given; for Total conc, ppm: concentration in paint chosen as minimum inhibitory concentration for SI, 30 C. The protocol:
as §1, §2
(§8) ASTM 5590 is a standard accelerated test method for determining resistance of various coatings (including paints) to fungal defacement. To accommodate for high-throughput screening, this method was scaled down from petri plates to 6-well plates. To set up the test, an agar plug was placed at the bottom of each well of the sterile 6-well plate. A single coupon was placed with a pair of sterile forceps at the center of the agar plug (on top) with the painted surface facing upwards. Fungal inoculums were prepared by mixing equal concentrations (1×10^6 cfu/ml) and equal volumes (depending on number of samples to be tested) of like growing organisms. For Flumetsulam+various IT synergy study, three pools of mixed fungi were prepared as the test inoculum. Cladosporium herbarum was mixed with Aureobasidium pullulans; Aspergillus niger was mixed with Penicillium funiculosum and Alternaria alternata was mixed with Trichoderma viride. For Diclosulam+various IT synergy study, all above fungi were mixed as a single pool. Each well was inoculated with 400 μl of organism mixture (1×10^6 cfu/ml) making sure that the whole surface (paint film as well as the agar surrounding it) was evenly covered. The plates were incubated at 30° C. in presence of moisture, for a period of four weeks. The total percent area covered was evaluated and recorded at the end of each week after the 2nd week and recorded in increments of 5%.
as §7

The test system of test [5] is Cladosporium herbarum mixed with Aureobasidium pullulans (ApCh). Described as above. Particulars: four weeks; for % inhibition: at the total conc given; for Total conc, ppm: concentration in paint chosen as minimum inhibitory concentration for SI, 30 C. The protocol: as §1, §2, §8, §7
Test [6] relates to Alternaria alternata mixed with Trichoderma viride (AaTv). Described as above. Particulars: four weeks; for % inhibition: at the total conc given; for Total conc, ppm: concentration in paint chosen as minimum inhibitory concentration for SI, 30 C. The protocol:
as §1, §2, §8, §7

For test [7], the system named is Aa + Tv + An + Pf + Ap + Ch (all fungi mixed as a single pool). In words: Fungal efficacy testing, modified ASTM 5590, paint film (Diclosulam study, single pool). Particulars: four weeks; for Total conc, ppm: Diclosulam:DIMTS study, concentration in paint used for SI, 30 C; for % inhibition: at the total conc given. As for the experimental part: as §1, §2
as §8, with “Each well was inoculated with 400 μl of organism mixture (1×10^6 cfu/ml) making sure that the whole surface (paint film as well as the agar surrounding it) was evenly covered. The plates were incubated at 30° C. in presence of moisture, for a period of four weeks.” left out
as §7

The test system of test [8] is Cp + To + Ta + Cs + Ck + Nc (algae grown on Bold media). In words: Algal efficacy testing, modified ASTM 5589, paint film (Diclosulam study). Particulars: four weeks; for Total conc, ppm: Diclosulam:DIMTS study, concentration in paint used for SI; for % inhibition: at the total conc given. As for the experimental part:
as §1, §2, §3, §5
Each well that contains a tested coupon was inoculated with 400 μl of organism mixture (1×10^6 cfu/ml) making sure that the whole surface (paint film as well as the agar surrounding it) was evenly covered. […] The total area covered was evaluated at the end of each week according to percent area covered in 5% increments.
as §7

In the case of `Cc1ccn2nc(S(=O)(=O)Nc3c(F)cccc3F)nc2n1` [Flumetsulam, N-(2,6-difluorophenyl)-5-methyl[1,2,4]triazolo[1,5-a]pyrimidine-2-sulfonamide], the % inhibition (commonly how much of the control response was suppressed) came to 80% in test [1] (Flumetsulam:DIMTS study); 95% in test [2]; 0% in test [3]; 40% in test [4]; 70% in test [5]; 70% in test [6]. Besides, the “Total conc, ppm” value is listed as 2625 ppm in test [1] (Flumetsulam:DIMTS study); 3500 ppm in test [2]; 3500 ppm in test [3]; 3500 ppm in test [4]; 3500 ppm in test [5]; 3500 ppm in test [6].

For `Cc1ccc(S(=O)(=O)C(I)I)cc1` [DIMTS, diiodomethyl-p-tolylsulfone], the “Total conc, ppm” value in test [7] was 2500 ppm; in test [1] (Diclosulam:DIMTS study), 2500 ppm; in test [1] (Flumetsulam:DIMTS study) it was 625 ppm; in test [2], 1250 ppm; in test [3], 1250 ppm; in test [8], 625 ppm. The “Total conc, ppm” value in test [4] worked out at 625 ppm; in test [5], 625 ppm; in test [6] it was 2500 ppm. The “% inhibition” value was found to be 0% in test [7]; 85% in test [1] (Diclosulam:DIMTS study); 85% in test [1] (Flumetsulam:DIMTS study); 100% in test [2]; 100% in test [3]; 100% in test [8]. Further, the “% inhibition” value in test [4] is 100%; in test [5] it was 100%; in test [6], 70%.

Regarding `CCOc1nc(F)cc2nc(S(=O)(=O)Nc3c(Cl)cccc3Cl)nn12` [Diclosulam, N-(2,6-dichlorophenyl)-5-ethoxy-7-fluoro[1,2,4]triazolo[1,5-c]pyrimidine-2-sulfonamide], the “Total conc, ppm” value worked out at 3500 ppm in test [7], 875 ppm in test [1] (Diclosulam:DIMTS study) and 437.5 ppm in test [8]. Besides, the entries for the “% inhibition” value in test [7], in test [1] (Diclosulam:DIMTS study) and in test [8] were 0%, 85% and 100%, respectively.
